# Laboratory results taken from patent US12030896B2, “PIKfyve inhibitors” (Mayo Foundation for Medical Education and Research, priority 2018, dated 2024).
# Several values for one entry are separate records, joined by “and”; a condition that tells them apart may be missing. Equal values may be shown once. Read-outs that look alike come from different tables or passages of the source.
# Experiments:
# [1] = Pharmacokinetic study of Example 3 in mouse (IV, IP); assay type: in vivo, C57 Mouse; conditions: for AUC(0-inf): read-out: AUCINF_pred
# Experimental: Species: C57 Mouse. Dose Route: IV&IP. Formulation Vehicle: IV&IP: 10% DMSO/30% PEG400/60% Saline. Dose Level: IV (5 mg/kg) and IP (30 mg/kg). Dose Volume: IV (5 mL/kg) and IP (10 mL/kg). Formulation concentrations: IV (1 mg/mL) and IP (3 mg/mL). LLOQ: IV (2 ng/mL) and IP (10 ng/mL).
# cells in culture = assay: Vacuolization activity in cells in culture; assay type: cell-based
# Text: As used herein the term “EC50 (μM)” refers to the μM concentration of a compound that is required for 50% activity in a vacuolization assay.
# Example 2 is a biotinylated derivative of the compound of Example 1.
# [2] = 5 mg/kg IV, individual animals 101M-103M
# [3] = 30 mg/kg IP, individual animals 201M-203M
# [4] = C57, mouse, plasma, ip, 30 mg/kg, 30 mg/kg IP, individual animals 201M-203M
# [5] = C57, mouse, plasma, ip, 30 mg/kg, 30 mg/kg IP, mean
# [6] = C57, mouse, plasma, iv, 5 mg/kg, 5 mg/kg IV, individual animals 101M-103M
# [7] = C57, mouse, plasma, iv, 5 mg/kg, 5 mg/kg IV, mean
smiles,measurement,setting,value
"Cc1ccc(Nc2nc(N/N=C/c3c[nH]c4ccccc34)cc(N3CCOCC3)n2)cc1 [Example 3, (E)-4-(2-((1H-indol-3-yl)methylene)hydrazinyl)-6-morpholino-N-(p-tolyl)pyrimidin-2-amine]",Plasma concentrations,"[1]; 5 mg/kg IV, 0.08 h, individual animals 101M-103M",9.1972 µg/mL and 4.3874 µg/mL and 7.1165 µg/mL
same,Plasma concentrations,"[1]; 5 mg/kg IV, 0.25 h, individual animals 101M-103M",7.1954 µg/mL and 2.7586 µg/mL and 3.6272 µg/mL
same,Plasma concentrations,"[1]; 5 mg/kg IV, 0.50 h, individual animals 101M-103M",1.6414 µg/mL and 2.8309 µg/mL
same,Plasma concentrations,"[1]; 5 mg/kg IV, 1.00 h, individual animals 101M-103M",0.9446 µg/mL and 1.3587 µg/mL
same,Plasma concentrations,"[1]; 5 mg/kg IV, 2.00 h, individual animals 101M-103M",0.3553 µg/mL and 0.3487 µg/mL
same,Plasma concentrations,"[1]; 5 mg/kg IV, 4.00 h, individual animals 101M-103M",0.071 µg/mL and 0.0803 µg/mL
same,Plasma concentrations,"[1]; 5 mg/kg IV, 8.00 h, individual animals 101M-103M",0.0352 µg/mL and 0.0378 µg/mL
same,Plasma concentrations,"[1]; 5 mg/kg IV, 24.00 h, individual animals 101M-103M, LLOQ 2 ng/mL",BLQ
same,AUCINF_pred,[1]; [2],3.4241 µg·h/mL and 4.892 µg·h/mL
same,AUClast,[1]; [2],3.3877 µg·h/mL and 4.8624 µg·h/mL
same,Cl_pred,[1]; [2],0.91 L/h/kg and 1.46 L/h/kg and 1.02 L/h/kg
same,Cmax,[1]; [2],9.1972 µg/mL and 4.3874 µg/mL and 7.1165 µg/mL
same,"HL_Lambda_z (T1/2, h)",[1]; [2],0.98 h and 0.85 h
same,MRTlast,[1]; [2],0.90 h and 0.77 h
same,Vz_pred,[1]; [2],1.12 L/kg and 2.06 L/kg and 1.25 L/kg
same,Cl_pred,"[1]; 5 mg/kg IV, mean",1.13 L/h/kg
same,Vz_pred,"[1]; 5 mg/kg IV, mean",1.48 L/kg
same,Plasma concentrations,"[1]; 30 mg/kg IP, 0.25 h, individual animals 201M-203M",1.5077 µg/mL and 0.9713 µg/mL
same,Plasma concentrations,"[1]; 30 mg/kg IP, 0.50 h, individual animals 201M-203M",2.0077 µg/mL and 1.7518 µg/mL
same,Plasma concentrations,"[1]; 30 mg/kg IP, 1.00 h, individual animals 201M-203M",3.1788 µg/mL and 2.9191 µg/mL
same,Plasma concentrations,"[1]; 30 mg/kg IP, 2.00 h, individual animals 201M-203M",3.1588 µg/mL and 3.638 µg/mL
same,Plasma concentrations,"[1]; 30 mg/kg IP, 4.00 h, individual animals 201M-203M",2.1155 µg/mL and 1.9622 µg/mL
same,Plasma concentrations,"[1]; 30 mg/kg IP, 8.00 h, individual animals 201M-203M",1.4281 µg/mL and 1.227 µg/mL
same,Plasma concentrations,"[1]; 30 mg/kg IP, 24.00 h, individual animals 201M-203M",0.185 µg/mL and 0.1451 µg/mL
same,AUCINF_pred,[1]; [3],29.9768 µg·h/mL and 27.1882 µg·h/mL
same,AUClast,[1]; [3],28.4291 µg·h/mL and 26.0464 µg·h/mL
same,Cl_F_pred,[1]; [3],1.32 L/h/kg and 1.00 L/h/kg and 1.10 L/h/kg
same,Cmax,[1]; [3],3.1788 µg/mL and 3.638 µg/mL
same,F %,[1]; [3],79.64% and 103.54% and 94.86%
same,"HL_Lambda_z (T1/2, h)",[1]; [3],5.85 h and 5.52 h
same,MRTlast,[1]; [3],5.45 h and 5.15 h
same,Tmax,[1]; [3],2.00 h
same,Vz_F_pred,[1]; [3],10.11 L/kg and 8.44 L/kg and 8.78 L/kg
same,Cl_F_pred,"[1]; 30 mg/kg IP, mean",1.14 L/h/kg
same,Vz_F_pred,"[1]; 30 mg/kg IP, mean",9.11 L/kg
same,concentration at 0.25 h,"[1]; C57, mouse, plasma, intraperitoneal, 30 mg/kg, 30 mg/kg IP, 0.25 h, individual animals 201M-203M, read-out: Plasma concentrations",1.49 µg/mL
same,concentration at 0.25 h,"[1]; C57, mouse, plasma, intraperitoneal, 30 mg/kg, 30 mg/kg IP, 0.25 h, mean, read-out: Plasma concentrations",1.32 µg/mL
same,concentration at 0.5 h,"[1]; C57, mouse, plasma, intraperitoneal, 30 mg/kg, 30 mg/kg IP, 0.50 h, individual animals 201M-203M, read-out: Plasma concentrations",2.27 µg/mL
same,concentration at 0.5 h,"[1]; C57, mouse, plasma, intraperitoneal, 30 mg/kg, 30 mg/kg IP, 0.50 h, mean, read-out: Plasma concentrations",2.01 µg/mL
same,concentration at 1 h,"[1]; C57, mouse, plasma, intraperitoneal, 30 mg/kg, 30 mg/kg IP, 1.00 h, individual animals 201M-203M, read-out: Plasma concentrations",2.99 µg/mL
same,concentration at 1 h,"[1]; C57, mouse, plasma, intraperitoneal, 30 mg/kg, 30 mg/kg IP, 1.00 h, mean, read-out: Plasma concentrations",3.03 µg/mL
same,concentration at 2 h,"[1]; C57, mouse, plasma, intraperitoneal, 30 mg/kg, 30 mg/kg IP, 2.00 h, individual animals 201M-203M, read-out: Plasma concentrations",2.83 µg/mL
same,concentration at 2 h,"[1]; C57, mouse, plasma, intraperitoneal, 30 mg/kg, 30 mg/kg IP, 2.00 h, mean, read-out: Plasma concentrations",3.21 µg/mL
same,concentration at 4 h,"[1]; C57, mouse, plasma, intraperitoneal, 30 mg/kg, 30 mg/kg IP, 4.00 h, individual animals 201M-203M, read-out: Plasma concentrations",1.6 µg/mL
same,concentration at 4 h,"[1]; C57, mouse, plasma, intraperitoneal, 30 mg/kg, 30 mg/kg IP, 4.00 h, mean, read-out: Plasma concentrations",1.89 µg/mL
same,concentration at 8 h,"[1]; C57, mouse, plasma, intraperitoneal, 30 mg/kg, 30 mg/kg IP, 8.00 h, individual animals 201M-203M, read-out: Plasma concentrations",0.998 µg/mL
same,concentration at 8 h,"[1]; C57, mouse, plasma, intraperitoneal, 30 mg/kg, 30 mg/kg IP, 8.00 h, mean, read-out: Plasma concentrations",1.22 µg/mL
same,concentration at 24 h,"[1]; C57, mouse, plasma, intraperitoneal, 30 mg/kg, 30 mg/kg IP, 24.00 h, individual animals 201M-203M, read-out: Plasma concentrations",0.107 µg/mL
same,concentration at 24 h,"[1]; C57, mouse, plasma, intraperitoneal, 30 mg/kg, 30 mg/kg IP, 24.00 h, mean, read-out: Plasma concentrations",0.146 µg/mL
same,concentration at 0.08 h,"[1]; C57, mouse, plasma, intravenous, 5 mg/kg, 5 mg/kg IV, 0.08 h, mean, read-out: Plasma concentrations",6.9 µg/mL
same,concentration at 0.25 h,"[1]; C57, mouse, plasma, intravenous, 5 mg/kg, 5 mg/kg IV, 0.25 h, mean, read-out: Plasma concentrations",4.53 µg/mL
same,concentration at 0.5 h,"[1]; C57, mouse, plasma, intravenous, 5 mg/kg, 5 mg/kg IV, 0.50 h, individual animals 101M-103M, read-out: Plasma concentrations",2.08 µg/mL
same,concentration at 0.5 h,"[1]; C57, mouse, plasma, intravenous, 5 mg/kg, 5 mg/kg IV, 0.50 h, mean, read-out: Plasma concentrations",2.18 µg/mL
same,concentration at 1 h,"[1]; C57, mouse, plasma, intravenous, 5 mg/kg, 5 mg/kg IV, 1.00 h, individual animals 101M-103M, read-out: Plasma concentrations",1.35 µg/mL
same,concentration at 1 h,"[1]; C57, mouse, plasma, intravenous, 5 mg/kg, 5 mg/kg IV, 1.00 h, mean, read-out: Plasma concentrations",1.22 µg/mL
same,concentration at 2 h,"[1]; C57, mouse, plasma, intravenous, 5 mg/kg, 5 mg/kg IV, 2.00 h, individual animals 101M-103M, read-out: Plasma concentrations",0.309 µg/mL
same,concentration at 2 h,"[1]; C57, mouse, plasma, intravenous, 5 mg/kg, 5 mg/kg IV, 2.00 h, mean, read-out: Plasma concentrations",0.338 µg/mL
same,concentration at 4 h,"[1]; C57, mouse, plasma, intravenous, 5 mg/kg, 5 mg/kg IV, 4.00 h, individual animals 101M-103M, read-out: Plasma concentrations",0.059 µg/mL
same,concentration at 4 h,"[1]; C57, mouse, plasma, intravenous, 5 mg/kg, 5 mg/kg IV, 4.00 h, mean, read-out: Plasma concentrations",0.0701 µg/mL
same,concentration at 8 h,"[1]; C57, mouse, plasma, intravenous, 5 mg/kg, 5 mg/kg IV, 8.00 h, individual animals 101M-103M, read-out: Plasma concentrations",0.0265 µg/mL
same,concentration at 8 h,"[1]; C57, mouse, plasma, intravenous, 5 mg/kg, 5 mg/kg IV, 8.00 h, mean, read-out: Plasma concentrations",0.0332 µg/mL
same,AUC(0-t),[1]; [4],21.9 µg·h/mL
same,MRT last,[1]; [4],4.9 h
same,AUC(0-inf),[1]; [4],22.7 µg·h/mL
same,Cmax,"[1]; C57, mouse, plasma, ip, 30 mg/kg, 30 mg/kg IP, individual animals 201M-203M, read-out: Cmax",2.99 µg/mL
same,half-life,"[1]; C57, mouse, plasma, ip, 30 mg/kg, 30 mg/kg IP, individual animals 201M-203M, read-out: HL_Lambda_z (T1/2, h) (converted)",5.29 h
same,Tmax,"[1]; C57, mouse, plasma, ip, 30 mg/kg, 30 mg/kg IP, individual animals 201M-203M, read-out: Tmax",1 h
same,AUC(0-t),[1]; [5],25.4 µg·h/mL
same,MRT last,[1]; [5],5.17 h
same,bioavailability,[1]; [5],92.7%
same,AUC(0-inf),[1]; [5],26.6 µg·h/mL
same,Cmax,"[1]; C57, mouse, plasma, ip, 30 mg/kg, 30 mg/kg IP, mean, read-out: Cmax",3.27 µg/mL
same,half-life,"[1]; C57, mouse, plasma, ip, 30 mg/kg, 30 mg/kg IP, mean, read-out: HL_Lambda_z (T1/2, h) (converted)",5.55 h
same,Tmax,"[1]; C57, mouse, plasma, ip, 30 mg/kg, 30 mg/kg IP, mean, read-out: Tmax",1.33 h
same,half-life,"[1]; C57, mouse, plasma, ip, 30 mg/kg, IP injection, single 30 mg/kg dose, read-out: half life (converted)",~5.5 h
same,AUC(0-t),[1]; [6],5.48 µg·h/mL
same,MRT last,[1]; [6],0.63 h
same,AUC(0-inf),[1]; [6],5.5 µg·h/mL
same,half-life,"[1]; C57, mouse, plasma, iv, 5 mg/kg, 5 mg/kg IV, individual animals 101M-103M, read-out: HL_Lambda_z (T1/2, h) (converted)",0.85 h
same,AUC(0-t),[1]; [7],4.58 µg·h/mL
same,MRT last,[1]; [7],0.76 h
same,AUC(0-inf),[1]; [7],4.61 µg·h/mL
same,Cmax,"[1]; C57, mouse, plasma, iv, 5 mg/kg, 5 mg/kg IV, mean, read-out: Cmax",6.9 µg/mL
same,half-life,"[1]; C57, mouse, plasma, iv, 5 mg/kg, 5 mg/kg IV, mean, read-out: HL_Lambda_z (T1/2, h) (converted)",0.89 h
same,peak concentration,"[1]; IP injection, single 30 mg/kg dose",3268 ng/mL
same,EC50,cells in culture,4 nM
